Measured values taken from article PMC4303209, “A novel phosphatidylinositol 3-kinase (PI3K) inhibitor directs a potent FOXO-dependent, p53-independent cell cycle arrest phenotype characterized by the differential induction of a subset of FOXO-regulated genes” (Breast Cancer Research : BCR, 2014).

Tested on: MCF-7 breast cancer cells
Experiment: Microarray gene expression analysis (Agilent whole human genome 4 x 44K; compound vs DMSO, LIMMA log2 fold change)
Format: cell-based
[1] = MCF-7, 100nM, six hours, 1.5-fold expression change threshold

## Oc1cccc(-c2nc(N3CCOCC3)c3oc4ncccc4c3n2)c1 [PI-103]
Gene 114799, cell cycle genes
  ESCO1 log2FC: 0.45
Gene 115426, cell cycle genes
  UHRF2 log2FC: 0.51
Gene 116138, cell cycle genes
  KLHDC3 log2FC: 0.0341
Gene 116840, cell cycle genes
  CNTROB log2FC: 0.23
Gene 121441, cell cycle genes
  NEDD1 log2FC: 0.35
Gene 124790, cell cycle genes
  HEXIM2 log2FC: 0.87
Gene 127829, cell cycle genes
  ARL8A log2FC: 0.56
Gene 127933, cell cycle genes
  UHMK1 log2FC: -0.17
Gene 128239, cell cycle genes
  IQGAP3 log2FC: 0.35
Gene 129401, cell cycle genes
  NUP35 log2FC: -0.36
Gene 129531, cell cycle genes
  MITD1 log2FC: 0.71
Gene 131870, cell cycle genes
  NUDT16 log2FC: -0.23
Gene 132625, cell cycle genes
  ZFP42 log2FC: -0.0323
Gene 133746, cell cycle genes
  JMY log2FC: 1.01
Gene 135458, cell cycle genes
  HUS1B log2FC: -0.84
Gene 140609, cell cycle genes
  NEK7 log2FC: 0.11
Gene 140690, cell cycle genes
  CTCFL log2FC: -0.0211
Gene 143471, cell cycle genes
  PSMA8 log2FC: 0.0738
Gene 143686, cell cycle genes
  SESN3 log2FC: 0.12
Gene 143689, cell cycle genes
  PIWIL4 log2FC: 0.27
Gene 144455, cell cycle genes
  E2F7 log2FC: -0.38
Gene 144715, cell cycle genes
  RAD9B log2FC: -0.00292
Gene 147040, cell cycle genes
  KCTD11 log2FC: 0.28
Gene 149628, cell cycle genes
  PYHIN1 log2FC: -0.0139
Gene 151242, cell cycle genes
  PPP1R1C log2FC: 0.09
Gene 151246, cell cycle genes
  SGOL2 log2FC: 0.87
Gene 151648, cell cycle genes
  SGOL1 log2FC: 0.42
Gene 152015, cell cycle genes
  ROPN1B log2FC: 0.0015
Gene 153090, cell cycle genes
  DAB2IP log2FC: 0.03
Gene 157313, cell cycle genes
  CDCA2 log2FC: 0.46
Gene 157570, cell cycle genes
  ESCO2 log2FC: 0.48
Gene 163786, cell cycle genes
  SASS6 log2FC: 0.49
Gene 164684, cell cycle genes
  WBP2NL log2FC: -0.0843
Gene 168451, cell cycle genes
  THAP5 log2FC: 0.10
Gene 201163, cell cycle genes
  FLCN log2FC: 0.78
Gene 201254, cell cycle genes
  STRA13 log2FC: -0.39
Gene 203068, cell cycle genes
  TUBB log2FC: -0.55
Gene 221035, cell cycle genes
  REEP3 log2FC: -0.29
Gene 221477, cell cycle genes
  C6orf89 log2FC: -0.38
Gene 245711, cell cycle genes
  SPDYA log2FC: -0.01
Gene 246184, cell cycle genes
  CDC26 log2FC: -0.67
Gene 259266, cell cycle genes
  ASPM log2FC: 1.14
Gene 283375, cell cycle genes
  SLC39A5 log2FC: 0.05
Gene 283431, cell cycle genes
  GAS2L3 log2FC: 0.53
Gene 286053, cell cycle genes
  NSMCE2 log2FC: 0.84
Gene 286826, cell cycle genes
  LIN9 log2FC: 1.23
Gene 339967, cell cycle genes
  TMPRSS11A log2FC: 0.0013
Gene 348995, cell cycle genes
  NUP43 log2FC: 0.24
Gene 378708, cell cycle genes
  APITD1 log2FC: 0.07
Gene 387893, cell cycle genes
  SETD8 log2FC: -0.04
Gene 415116, cell cycle genes
  PIM3 log2FC: 0.64
Gene 440822, cell cycle genes
  PIWIL3 log2FC: -0.09
MCF-7
  expression of FOXO-dependent apoptosis genes including TNFSF10, BCL211 and FASLG (array): did not significantly change
[1]
  number of differentially expressed genes: more than 2,000
  number of induced (upregulated) genes: 1,293
  number of repressed (downregulated) genes: 886
MCF-7, FOXO target genes
  CCND1, SPRY2 and MMP9 expression (array): significantly downregulated
  expression of CCNG2, KLHL24, DDIT3, CITED2 and RICTOR (array): significantly upregulated
Cell cycle genes
  MAD1L1 log2FC: -0.14
Gene ACSL5 (51703), apoptosis genes
  ACSL5 log2FC: 0.058
Gene ACTR1A (Gene 10121), cell cycle genes
  log2FC: -0.13
Gene ADAMTS20 (80070), apoptosis genes
  ADAMTS20 log2FC: -0.005
Gene ADIPOQ (9370), apoptosis genes
  ADIPOQ log2FC: -0.040
Gene ADRA1A (148), apoptosis genes
  ADRA1A log2FC: 0.010
Gene AGTR2 (186), apoptosis genes
  AGTR2 log2FC: 0.044
Gene AKAP8 (Gene 10270), cell cycle genes
  log2FC AKAP8: -0.20
Gene ALB (213), apoptosis genes
  ALB log2FC: -0.044
Gene ALOX12 (239), apoptosis genes
  ALOX12 log2FC: -0.144
Gene ALX3 (257), apoptosis genes
  ALX3 log2FC: 0.013
Gene ALX4 (60529), apoptosis genes
  ALX4 log2FC: -0.036
Gene ANAPC13 (Gene 25847), cell cycle genes
  log2FC: -0.30
Gene ANKRD13C (81573), apoptosis genes
  ANKRD13C log2FC: -0.007
Gene APBB1 (322), apoptosis genes
  APBB1 log2FC: 0.356
Gene APOH (350), apoptosis genes
  APOH log2FC: 0.052
Gene AQP1 (358), apoptosis genes
  AQP1 log2FC: -0.011
Gene ARHGAP10 (79658), apoptosis genes
  ARHGAP10 log2FC: -0.061
Gene ARHGEF6 (9459), apoptosis genes
  ARHGEF6 log2FC: -0.152
Gene ARHGEF16 (27237), apoptosis genes
  ARHGEF16 log2FC: 0.275
Gene ARHGEF18 (23370), apoptosis genes
  ARHGEF18 log2FC: -0.106
Gene ATOH1 (474), apoptosis genes
  ATOH1 log2FC: -0.042
Gene ATPIF1 (93974), apoptosis genes
  ATPIF1 log2FC: 0.131
Gene ATR (Gene 545), cell cycle genes
  log2FC: 0.11
Gene BAD (Gene 572), cell cycle genes
  log2FC: 0.53
Gene BCL2L10 (10017), apoptosis genes
  BCL2L10 log2FC: -0.066
Gene BDKRB2 (624), apoptosis genes
  BDKRB2 log2FC: -0.025
Gene BIRC2 (329), apoptosis genes
  BIRC2 log2FC: -0.339
Gene BIRC8 (112401), apoptosis genes
  BIRC8 log2FC: -0.038
Gene BMP2 (650), apoptosis genes
  BMP2 log2FC: -0.233
Gene BMP4 (Gene 652), cell cycle genes
  log2FC: 0.22
Gene BMP5 (653), apoptosis genes
  BMP5 log2FC: -0.019
Gene BOK (666), apoptosis genes
  BOK log2FC: 0.093
Gene BRE (Gene 9577), cell cycle genes
  log2FC: -0.21
Gene BTK (695), apoptosis genes
  BTK log2FC: 0.086
Gene BUB1B (Gene 701), cell cycle genes
  log2FC: 0.15
Gene C1QBP (708), apoptosis genes
  C1QBP log2FC: -0.112
Gene C3orf38 (285237), apoptosis genes
  C3orf38 log2FC: -0.159
Gene CAMK2B (Gene 816), cell cycle genes
  log2FC: 0.01
Gene CAPN3 (825), apoptosis genes
  CAPN3 log2FC: -0.026
Gene CAPN3 (Gene 825), cell cycle genes
  log2FC CAPN3: -0.0259
Gene CARD9 (64170), apoptosis genes
  CARD9 log2FC: 0.028
Gene CARD14 (79092), apoptosis genes
  CARD14 log2FC: 0.056
Gene CASP3 (Gene 836), cell cycle genes
  log2FC: 0.31
Gene CASP10 (843), apoptosis genes
  CASP10 log2FC: 0.088
Gene CASP12 (120329), apoptosis genes
  CASP12 log2FC: 0.062
Gene CCK (885), apoptosis genes
  CCK log2FC: -0.021
Gene CCL19 (6363), apoptosis genes
  CCL19 log2FC: 0.205
Gene CCNB2 (Gene 9133), cell cycle genes
  log2FC: 0.20
Gene CCNH (Gene 902), cell cycle genes
  log2FC: 0.14
Gene CCNT2 (Gene 905), cell cycle genes
  log2FC: 0.14
Gene CD38 (952), apoptosis genes
  CD38 log2FC: 0.042
Gene CD40LG (959), apoptosis genes
  CD40LG log2FC: -0.017
Gene CD248 (57124), apoptosis genes
  CD248 log2FC: 0.046
Gene CDC73 (Gene 79577), cell cycle genes
  log2FC: 0.33
Gene CDH1 (999), apoptosis genes
  CDH1 log2FC: 0.556
Gene CDH13 (Gene 1012), cell cycle genes
  log2FC CDH13: 0.0463
Gene CDK2AP1 (Gene 8099), cell cycle genes
  log2FC CDK2AP1: -0.15
Gene CDK5 (1020), apoptosis genes
  CDK5 log2FC: 0.184
Gene CDK5RAP1 (Gene 51654), cell cycle genes
  log2FC CDK5RAP1: 0.0451
Gene CDKN2B (Gene 1030), cell cycle genes
  log2FC CDKN2B: -0.0758
Gene CENPJ (Gene 55835), cell cycle genes
  log2FC: 0.11
Gene CENPK (Gene 64105), cell cycle genes
  log2FC: 0.33
Gene CETN3 (Gene 1070), cell cycle genes
  log2FC: 0.33
Gene CHEK2 (Gene 11200), cell cycle genes
  log2FC: 0.11
Gene CHIA (27159), apoptosis genes
  CHIA log2FC: -0.110
Gene CIDEA (1149), apoptosis genes
  CIDEA log2FC: -0.071
Gene CLC (1178), apoptosis genes
  CLC log2FC: -0.00153
Gene CLEC5A (23601), apoptosis genes
  CLEC5A log2FC: -0.040
Gene CLSPN (63967), apoptosis genes
  CLSPN log2FC: -0.114
Gene CNTFR (1271), apoptosis genes
  CNTFR log2FC: -0.050
Gene COL2A1 (1280), apoptosis genes
  COL2A1 log2FC: -0.00236
Gene COL4A3 (1285), apoptosis genes
  COL4A3 log2FC: 0.543
Gene COMP (1311), apoptosis genes
  COMP log2FC: -0.113
Gene COPS5 (Gene 10987), cell cycle genes
  log2FC: 0.16
Gene CRLF3 (Gene 51379), cell cycle genes
  log2FC: 0.14
Gene CSNK2B (Gene 1460), cell cycle genes
  log2FC: -0.06
Gene CST3 (1471), apoptosis genes
  CST3 log2FC: 0.253
Gene CTLA4 (1493), apoptosis genes
  CTLA4 log2FC: 0.009
Gene CXCR4 (7852), apoptosis genes
  CXCR4 log2FC: 0.375
Gene CYR61 (3491), apoptosis genes
  CYR61 log2FC: -0.258
Gene DAPK2 (23604), apoptosis genes
  DAPK2 log2FC: -1.207
Gene DAXX (1616), apoptosis genes
  DAXX log2FC: -0.040
Gene DAXX (Gene 1616), cell cycle genes
  log2FC DAXX: -0.04
Gene DCLRE1B (Gene 64858), cell cycle genes
  log2FC: -0.35
Gene DDX11 (Gene 1663), cell cycle genes
  log2FC: -0.27
Gene DDX47 (51202), apoptosis genes
  DDX47 log2FC: -0.196
Gene DEDD2 (162989), apoptosis genes
  DEDD2 log2FC: 0.214
Gene DFFB (1677), apoptosis genes
  DFFB log2FC: -0.041
Gene DIAPH2 (Gene 1730), cell cycle genes
  log2FC: 0.38
Gene DIRAS3 (Gene 9077), cell cycle genes
  log2FC DIRAS3: 0.0278
Gene DMPK (1760), apoptosis genes
  DMPK log2FC: 0.273
Gene DNM2 (1785), apoptosis genes
  DNM2 log2FC: 0.271
Gene DPF1 (8193), apoptosis genes
  DPF1 log2FC: -0.250
Gene ECD (Gene 11319), cell cycle genes
  log2FC ECD: -0.23
Gene EGR3 (1960), apoptosis genes
  EGR3 log2FC: 0.187
Gene EGR4 (1961), apoptosis genes
  EGR4 log2FC: 0.222
Gene ELMO1 (9844), apoptosis genes
  ELMO1 log2FC: 0.209
Gene EPB41L3 (23136), apoptosis genes
  EPB41L3 log2FC: 0.039
